Data: ChEMBL document CHEMBL1142042, “Nonpeptide alpha(v)beta3 antagonists: identification of potent, chain-shortened 7-oxo RGD mimetics” (Bioorg Med Chem Lett, 2005)

What was measured:
Integrin alpha-V/beta-3 = Integrin alpha-V/beta-3 (Homo sapiens, UniProt P05106+P06756); assay: Inhibition of 2(S)-(4-125I-benzenesulphonylamino)-3-4-[2-(5,6,7,8-tetrahydro- [1,8]naphthyridin-2-yl)-ethyl]-benzoylamino-propionic acid binding to alphaV-beta3 integrin; assay type: protein-complex assay
[1] = Oral bioavailability in dog (dose 1 mg/kg); assay type: ADME, organism-based, Canis lupus familiaris; conditions: in vivo
[2] = Partition coefficient (logP); assay type: physicochemical; conditions: octanol/water
[3] = Clearance when dosed intravenously at 0.2 mpk to dogs; n = 2; assay type: ADME, organism-based, Canis lupus familiaris; conditions: dog, in vivo, iv, 0.2 mg/kg
[4] = In vitro inhibition of mouse osteoblast-like 1.8 cells transformation into osteoclasts; assay type: functional
[5] = Plasma half life when dosed orally at 1 mpk and intravenously at 0.2 mpk to dogs; n = 2; assay type: ADME, organism-based, Canis lupus familiaris; conditions: dog

Sequence of Integrin alpha-V/beta-3 (P05106 27-788 limits assumed): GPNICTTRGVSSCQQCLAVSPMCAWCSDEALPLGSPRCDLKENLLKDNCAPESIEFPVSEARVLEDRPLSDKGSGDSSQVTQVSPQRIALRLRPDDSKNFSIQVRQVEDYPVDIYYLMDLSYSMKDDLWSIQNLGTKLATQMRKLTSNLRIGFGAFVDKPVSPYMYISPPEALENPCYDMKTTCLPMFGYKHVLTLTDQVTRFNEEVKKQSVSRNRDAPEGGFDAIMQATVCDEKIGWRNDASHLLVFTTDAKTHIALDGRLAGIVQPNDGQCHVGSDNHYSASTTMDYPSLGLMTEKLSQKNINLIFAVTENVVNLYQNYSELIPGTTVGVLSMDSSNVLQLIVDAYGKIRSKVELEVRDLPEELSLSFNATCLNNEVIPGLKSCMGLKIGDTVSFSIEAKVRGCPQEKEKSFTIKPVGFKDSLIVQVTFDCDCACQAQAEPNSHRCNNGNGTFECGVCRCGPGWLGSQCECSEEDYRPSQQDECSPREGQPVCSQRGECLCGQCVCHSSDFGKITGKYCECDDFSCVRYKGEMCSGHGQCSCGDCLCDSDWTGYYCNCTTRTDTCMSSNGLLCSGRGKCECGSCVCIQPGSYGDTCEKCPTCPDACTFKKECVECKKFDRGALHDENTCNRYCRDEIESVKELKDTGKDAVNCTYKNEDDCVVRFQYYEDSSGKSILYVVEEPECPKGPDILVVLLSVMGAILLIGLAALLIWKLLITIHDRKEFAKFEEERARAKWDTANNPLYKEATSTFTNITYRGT
Sequence of Integrin alpha-V/beta-3 (P06756 31-889 limits assumed): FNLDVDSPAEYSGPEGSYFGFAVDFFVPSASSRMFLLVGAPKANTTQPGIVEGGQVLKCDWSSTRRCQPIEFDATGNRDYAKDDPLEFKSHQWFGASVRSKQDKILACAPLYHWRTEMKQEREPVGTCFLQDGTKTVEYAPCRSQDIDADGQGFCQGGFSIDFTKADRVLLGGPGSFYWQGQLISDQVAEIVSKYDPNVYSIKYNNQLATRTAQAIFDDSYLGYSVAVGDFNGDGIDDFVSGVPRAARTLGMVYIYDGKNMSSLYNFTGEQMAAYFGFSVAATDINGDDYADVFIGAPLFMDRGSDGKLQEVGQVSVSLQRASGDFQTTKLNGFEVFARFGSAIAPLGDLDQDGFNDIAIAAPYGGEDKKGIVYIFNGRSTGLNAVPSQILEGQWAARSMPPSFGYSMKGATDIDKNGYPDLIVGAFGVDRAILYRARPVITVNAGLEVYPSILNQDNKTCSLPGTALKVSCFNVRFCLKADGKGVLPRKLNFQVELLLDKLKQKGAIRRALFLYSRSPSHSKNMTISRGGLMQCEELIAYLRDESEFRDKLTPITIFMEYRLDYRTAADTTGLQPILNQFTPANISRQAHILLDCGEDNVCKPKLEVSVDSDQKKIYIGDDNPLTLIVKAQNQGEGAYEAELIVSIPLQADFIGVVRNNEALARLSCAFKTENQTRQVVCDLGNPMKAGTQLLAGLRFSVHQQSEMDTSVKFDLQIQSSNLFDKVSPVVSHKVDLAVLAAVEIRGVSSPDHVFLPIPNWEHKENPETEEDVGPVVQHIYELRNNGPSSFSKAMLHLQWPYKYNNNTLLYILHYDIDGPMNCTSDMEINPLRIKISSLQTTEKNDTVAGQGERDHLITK
Sequence of Integrin alpha-V/beta-3 (P06756 891-1048 limits assumed): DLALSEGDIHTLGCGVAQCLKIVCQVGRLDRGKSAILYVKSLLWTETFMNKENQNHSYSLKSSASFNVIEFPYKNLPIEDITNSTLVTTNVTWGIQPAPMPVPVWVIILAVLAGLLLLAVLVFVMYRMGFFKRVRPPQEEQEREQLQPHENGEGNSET

| IC50 (Integrin alpha-V/beta-3) | bioavailability [1] | logP [2] | clearance [3] | IC50 [4] | half-life [5] | Structure (SMILES) |
| --- | --- | --- | --- | --- | --- | --- |
| 0.24 nM | 60% | 0.1 | 2.5 mL/min/kg | 8 nM | 6.1 h | COc1ccc([C@@H](CCC[C@H](O)CCc2ccc3c(n2)NCCC3)CC(=O)O)cn1 |
| 0.24 nM |  | 0 |  | 36 nM |  | COc1ccc([C@@H](CCC[C@@H](O)CCc2ccc3c(n2)NCCC3)CC(=O)O)cn1 |
|  |  |  | 4 mL/min/kg | 39 nM | 9 h | COc1ccc([C@@H](CCCCCCc2ccc3c(n2)NCCC3)CC(=O)O)cn1 |
| 0.16 nM | 75% | 0 | 6.7 mL/min/kg | 12 nM | 7 h | COc1ccc([C@@H](CCCC(=O)CCc2ccc3c(n2)NCCC3)CC(=O)O)cn1 |
